Data as given in patent US12552783B2, “Modulators of proteolysis and associated methods of use” (Arvinas Operations, Inc., priority 2018, dated 2026).

Biological target: KRas (Homo sapiens, UniProt P01116, G12C)
Test: KRas degradation in NCI-H2030 cells by Western blot, normalized to GAPDH (data of Table 14)
Type: cell-based
Design: host or cells: NCI-H2030
Conditions: for Dmax: NCI-H2030
Summary of the method: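 Both lines are homozygous for KRas G12C and were serum-starved for 24 h before treatment with compound at 0.3, 1 or 3 μM in 0.1% DMSO: 24 h for VHL-based compounds, 72 h for the rest. Western blot of 10 μg lysate gave KRas signal normalized to GAPDH, and percent degradation was expressed relative to the DMSO control.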

Structure (SMILES)	Percent Degradation at Indicated Concentration (μM) (H2030, 0.3 μM)	Percent Degradation at Indicated Concentration (μM) (H2030, 1 μM)	Percent Degradation at Indicated Concentration (μM) (H2030, 3 μM)	Dmax [%]	other results
C=CC(=O)N1CCN(c2nc(O[C@H](C)CN3CCC(OCCOCC(=O)N[C@H](C(=O)N4C[C@H](O)C[C@H]4C(=O)N[C@@H](C)c4ccc(-c5scnc5C)cc4)C(C)(C)C)CC3)nc3c2CCN(c2cc(O)cc4ccccc24)C3)CC1 [compound 406, (2S,4R)-1-((S)-2-(2-(2-((1-((R)-2-((4-(4-acryloylpiperazin-1-yl)-7-(3-hydroxynaphthalen-1-yl)-5,6,7,8-tetrahydropyrido[3,4-d]pyrimidin-2-yl)oxy)propyl)piperidin-4-yl)oxy)ethoxy)acetamido)-3,3-dimethylbutanoyl)-4-hydroxy-N-((S)-1-(4-(4-methylthiazol-5-yl)phenyl)ethyl)pyrrolidine-2-carboxamide]	–	–	–	–	Percent Degradation at Indicated Concentration (μM) (H2030 cells, 0.3 μM): C (Percent Degradation: C ≤ 35); Percent Degradation at Indicated Concentration (μM) (H2030 cells, 1 μM): C (Percent Degradation: C ≤ 35); Percent Degradation at Indicated Concentration (μM) (H2030 cells, 3 μM): C (Percent Degradation: C ≤ 35)
COc1cc(-c2scnc2C)ccc1[C@H](C)NC(=O)[C@@H]1C[C@@H](O)CN1C(=O)[C@@H](c1cc(OCCOCCOCCOCCOCCN(C)C(=O)CCNc2nc(N3CCN(C(C)=O)CC3)c3cc(Cl)c(-c4cc(O)cc5ccccc45)c(F)c3n2)no1)C(C)C [compound 391, (2S,4R)-1-((2R)-2-(3-((18-((4-(4-acetylpiperazin-1-yl)-6-chloro-8-fluoro-7-(3-hydroxynaphthalen-1-yl)quinazolin-2-yl)amino)-15-methyl-16-oxo-3,6,9,12-tetraoxa-15-azaoctadecyl)oxy)isoxazol-5-yl)-3-methylbutanoyl)-4-hydroxy-N-((S)-1-(2-methoxy-4-(4-methylthiazol-5-yl)phenyl)ethyl)pyrrolidine-2-carboxamide]	C (Percent Degradation: C ≤ 35)	C (Percent Degradation: C ≤ 35)	C (Percent Degradation: C ≤ 35)	≤ 35	–
C=CC(=O)N1CCN(c2nc(NCCC(=O)N(C)CCOCCOc3ccc4c(c3)CN(C3CCC(=O)NC3=O)C4=O)nc3c(F)c(-c4c(O)cccc4F)c(Cl)cc23)CC1 [compound 89, 3-((4-(4-acryloylpiperazin-1-yl)-6-chloro-8-fluoro-7-((S)-2-fluoro-6-hydroxyphenyl)quinazolin-2-yl)amino)-N-(2-(2-((2-(2,6-dioxopiperidin-3-yl)-1-oxoisoindolin-5-yl)oxy)ethoxy)ethyl)-N-methylpropanamide]	C (Percent Degradation: C ≤ 35)	C (Percent Degradation: C ≤ 35)	C (Percent Degradation: C ≤ 35)	≤ 35	–
C=CC(=O)N1CCN(c2nc(O[C@H](C)CN3CCC(OCCOCCOCCOCC(=O)N[C@H](C(=O)N4C[C@H](O)C[C@H]4C(=O)N[C@@H](C)c4ccc(-c5scnc5C)cc4)C(C)(C)C)CC3)nc3c2CCN(c2cc(O)cc4ccccc24)C3)CC1 [compound 408]	–	–	–	–	Percent Degradation at Indicated Concentration (μM) (H2030 cells, 0.3 μM): C (Percent Degradation: C ≤ 35); Percent Degradation at Indicated Concentration (μM) (H2030 cells, 1 μM): C (Percent Degradation: C ≤ 35); Percent Degradation at Indicated Concentration (μM) (H2030 cells, 3 μM): C (Percent Degradation: C ≤ 35)
C=CC(=O)N1CCN(c2nc(NCCC(=O)N(C)CCOCCNc3cccc4c3C(=O)N(C3CCC(=O)NC3=O)C4=O)nc3c(F)c(-c4c(O)cccc4F)c(Cl)cc23)CC1 [compound 109, 3-(((S)-4-(4-acryloylpiperazin-1-yl)-6-chloro-8-fluoro-7-(2-fluoro-6-hydroxyphenyl)quinazolin-2-yl)amino)-N-(2-(2-((2-(2,6-dioxopiperidin-3-yl)-1,3-dioxoisoindolin-4-yl)amino)ethoxy)ethyl)-N-methylpropanamide]	C (Percent Degradation: C ≤ 35)	C (Percent Degradation: C ≤ 35)	C (Percent Degradation: C ≤ 35)	≤ 35	–
CCC(=O)N1CCN(c2nc(NCCC(=O)N(C)CCOCCOCCOCCOCCOc3ccc4c(c3)CN(C3CCC(=O)NC3=O)C4=O)nc3c(F)c(-c4cc(O)cc5ccccc45)c(Cl)cc23)CC1 (stereo not shown) [compound 54, 3-((6-chloro-8-fluoro-7-(3-hydroxynaphthalen-1-yl)-4-(4-propionylpiperazin-1-yl)quinazolin-2-yl)amino)-N-(14-((2-(2,6-dioxopiperidin-3-yl)-1-oxoisoindolin-5-yl)oxy)-3,6,9,12-tetraoxatetradecyl)-N-methylpropanamide]	–	–	–	–	Percent Degradation at Indicated Concentration (μM): 0.3 (H2030 cells, 0.3 μM): C (C ≤ 35); Percent Degradation at Indicated Concentration (μM): 1 (H2030 cells, 1 μM): C (C ≤ 35); Percent Degradation at Indicated Concentration (μM): 3 (H2030 cells, 3 μM): C (C ≤ 35); Dmax (H2030 cells): ≤ 35%
Cc1ncsc1-c1ccc([C@H](C)NC(=O)[C@@H]2C[C@@H](O)CN2C(=O)[C@@H](NC(=O)COCCOCCOCCN(C)C(=O)CCNc2nc(N3CCN(C(=O)C(O)O)CC3)c3cc(Cl)c(-c4c(O)cccc4F)c(F)c3n2)C(C)(C)C)cc1 (atropisomer, axis not shown) [compound 238, (2S,4R)-1-((S)-2-(tert-butyl)-18-((6-chloro-4-(4-(2,2-dihydroxyacetyl)piperazin-1-yl)-8-fluoro-7-((S)-2-fluoro-6-hydroxyphenyl)quinazolin-2-yl)amino)-15-methyl-4,16-dioxo-6,9,12-trioxa-3,15-diazaoctadecanoyl)-4-hydroxy-N-((S)-1-(4-(4-methylthiazol-5-yl)phenyl)ethyl)pyrrolidine-2-carboxamide]	–	–	–	–	Percent Degradation at Indicated Concentration (μM) (H2030 cells, 3 μM): C (Percent Degradation: C ≤ 35)
C=CC(=O)N1CCN(c2nc(NCCC(=O)N(C)CCOCCNC(=O)c3ccc(NC(=O)[C@@H]4N[C@@H](CC(C)(C)C)[C@](C#N)(c5ccc(Cl)cc5F)[C@H]4c4cccc(Cl)c4F)c(OC)c3)nc3c(F)c(-c4c(O)cccc4F)c(Cl)cc23)CC1 (atropisomer, axis not shown) [compound 307, (2R,3S,4R,5S)-N-(4-((2-(2-(3-((4-(4-acryloylpiperazin-1-yl)-6-chloro-8-fluoro-7-((S)-2-fluoro-6-hydroxyphenyl)quinazolin-2-yl)amino)-N-methylpropanamido)ethoxy)eth-yl)carbamoyl)-2-methoxyphenyl)-3-(3-chloro-2-fluorophenyl)-4-(4-chloro-2-fluorophenyl)-4-cyano-5-neopentylpyrrolidine-2-carboxamide]	C (Percent Degradation: C ≤ 35)	C (Percent Degradation: C ≤ 35)	C (Percent Degradation: C ≤ 35)	≤ 35	–
C=CC(=O)N1CCN(c2nc(NCCC(=O)N(C)CCOCCOCCOCCOCCOc3cc(-c4scnc4C)ccc3CNC(=O)[C@@H]3C[C@@H](O)CN3C(=O)[C@H](c3cc(C)no3)C(C)C)nc3c(F)c(-c4c(O)cccc4F)c(Cl)cc23)CC1 (atropisomer, axis not shown) [compound 132, (25,4R)-N-(2-((18-(((S)-4-(4-acryloylpiperazin-1-yl)-6-chloro-8-fluoro-7-(2-fluoro-6-hydroxyphenyl)quinazolin-2-yl)amino)-15-methyl-16-oxo-3,6,9,12-tetraoxa-15-azaoctadecyl)oxy)-4-(4-methylthiazol-5-yl)benzyl)-4-hydroxy-1-((S)-3-methyl-2-(3-methylisoxazol-5-yl)butanoyl)pyrrolidine-2-carboxamide]	C (Percent Degradation: C ≤ 35)	C (Percent Degradation: C ≤ 35)	C (Percent Degradation: C ≤ 35)	≤ 35	–
C=CC(=O)N1CCN(c2nc(NCCC(=O)N(C)CCNc3cccc4c3C(=O)N(C3CCC(=O)NC3=O)C4=O)nc3c(F)c(-c4c(O)cccc4F)c(Cl)cc23)CC1 [compound 108, 3-(((R)-4-(4-acryloylpiperazin-1-yl)-6-chloro-8-fluoro-7-(2-fluoro-6-hydroxyphenyl)quinazolin-2-yl)amino)-N-(2-((2-(2,6-dioxopiperidin-3-yl)-1,3-dioxoisoindolin-4-yl)amino)ethyl)-N-methylpropanamide]	C (Percent Degradation: C ≤ 35)	C (Percent Degradation: C ≤ 35)	C (Percent Degradation: C ≤ 35)	≤ 35	–
C=CC(=O)N1CCN(c2nc(NCCC(=O)N(C)CCOCCOc3ccc(-c4csc([C@@H]5CCCN5C(=O)[C@@H](NC(=O)[C@H](C)NC)C5CCCCC5)n4)c4ccccc34)nc3c(F)c(-c4c(O)cccc4F)c(Cl)cc23)CC1 (atropisomer, axis not shown) [compound 276, 3-((4-(4-acryloylpiperazin-1-yl)-6-chloro-8-fluoro-7-((S)-2-fluoro-6-hydroxyphenyl)quinazolin-2-yl)amino)-N-(2-(2-((4-(2-((S)-1-((S)-2-cyclohexyl-2-((S)-2-(methylamino)propan-amido)acetyl)pyrrolidin-2-yl)thiazol-4-yl)naphthalen-1-yl)oxy)ethoxy)ethyl)-N-methylpropanamide]	C (Percent Degradation: C ≤ 35)	C (Percent Degradation: C ≤ 35)	C (Percent Degradation: C ≤ 35)	≤ 35	–
CC(=O)N1CCN(c2nc(NCCC(=O)N(C)CCOCCOCCOCC(=O)N[C@H](C(=O)N3C[C@H](O)C[C@H]3C(=O)N[C@@H](C)c3ccc(-c4scnc4C)cc3)C(C)(C)C)nc3c(F)c(-c4cc(O)cc5ccccc45)c(Cl)cc23)CC1 [compound 202, (2S,4R)-1-((2S)-18-((4-(4-acetylpiperazin-1-yl)-6-chloro-8-fluoro-7-(3-hydroxynaphthalen-1-yl)quinazolin-2-yl)amino)-2-(tert-butyl)-15-methyl-4,16-dioxo-6,9,12-trioxa-3,15-diazaoctadecanoyl)-4-hydroxy-N-((S)-1-(4-(4-methylthiazol-5-yl)phenyl)ethyl)pyrrolidine-2-carboxamide]	C (Percent Degradation: C ≤ 35)	C (Percent Degradation: C ≤ 35)	C (Percent Degradation: C ≤ 35)	≤ 35	–
